From DBAASP
Values after ≈ are worked out from the molar mass of the structure shown.

Assays:
Test in all cases: ≥ marks a high value that may be exact or a test limit, other limits are often not marked, values filed in µg/mL are converted to µM
Bacillus subtilis = test system: Bacillus subtilis
Staphylococcus aureus = test system: Staphylococcus aureus
Escherichia coli = test system: Escherichia coli
Candida albicans = test system: Candida albicans
Bacillus cereus = test system: Bacillus cereus
[1] = test system: Staphylococcus aureus ATCC 25923
[2] = test system: Escherichia coli ATCC 25922
[3] = test system: Pseudomonas aeruginosa ATCC 27853
[4] = test system: Acinetobacter baumannii ATCC 19606

CC[C@H](C)[C@H](NC(=O)[C@H](CCCN=C(N)N)NC(=O)[C@@H](NC(=O)[C@@H]1CCCN1C(=O)[C@H](CCCN=C(N)N)NC(=O)[C@@H](NC(=O)[C@@H]1CCCN1C(=O)[C@H](CC(C)C)NC(=O)[C@H](CC(C)C)NC(=O)CNC(=O)[C@H](Cc1cnc[nH]1)NC(=O)[C@@H]1CCCN1C(=O)CNC(=O)[C@H](Cc1ccccc1)NC(=O)[C@H](CC(=O)O)NC(=O)[C@H](Cc1c[nH]c2ccccc12)NC(=O)[C@H](C)NC(=O)[C@@H](NC(=O)[C@H](C)N)[C@@H](C)O)[C@@H](C)CC)[C@@H](C)CC)C(=O)N[C@@H](CCCN=C(N)N)C(=O)N1CCC[C@H]1C(=O)N[C@@H](CC(C)C)C(=O)N[C@@H](CS)C(=O)NCC(=O)N[C@@H](CCCCN)C(=O)N[C@@H](CC(=O)O)C(=O)N[C@@H](CCCCN)C(=O)N[C@@H](CO)C(=O)O [ATAWDFGPHGLLPIRPIRIRPLCGKDKS]
MIC (Bacillus subtilis): 24.1 µM (≈ 75 µg/mL)
MIC (Staphylococcus aureus): 1.5 µM (≈ 4.68 µg/mL)
MIC (Escherichia coli): 3.01 µM (≈ 9.37 µg/mL)
MIC (Candida albicans): 6.02 µM (≈ 18.8 µg/mL)

CC(C)C[C@H](NC(=O)[C@@H](N)Cc1ccccc1)C(=O)NCC(=O)NCC(=O)N[C@H](C(=O)N[C@@H](Cc1ccccc1)C(=O)N[C@@H](CCCCN)C(=O)NCC(=O)N[C@@H](C)C(=O)N[C@@H](CO)C(=O)N[C@@H](CCCCN)C(=O)N[C@H](C(=O)N[C@@H](Cc1ccccc1)C(=O)N1CCC[C@H]1C(=O)N[C@@H](C)C(=O)N[C@H](C(=O)N[C@@H](Cc1ccccc1)C(=O)NCC(=O)N[C@@H](CCCCN)C(=O)N[C@H](C(=O)O)C(C)C)C(C)C)C(C)C)C(C)C [FLGGVFKGASKVFPAVFGKV]
MIC (Staphylococcus aureus): > 125 µM
MIC (Bacillus cereus): ≥ 125 µM
MIC (Escherichia coli): > 125 µM

CC(C)C[C@H](NC(=O)[C@@H](N)Cc1ccccc1)C(=O)NCC(=O)N[C@@H](CCCCN)C(=O)N[C@H](C(=O)N[C@@H](Cc1ccccc1)C(=O)N[C@@H](CCCCN)C(=O)NCC(=O)N[C@@H](C)C(=O)N[C@H](C(=O)N[C@@H](CCCCN)C(=O)N[C@H](C(=O)N[C@@H](Cc1ccccc1)C(=O)N1CCC[C@H]1C(=O)N[C@@H](C)C(=O)N[C@H](C(=O)N[C@@H](Cc1ccccc1)C(=O)NCC(=O)N[C@@H](CCCCN)C(=O)N[C@H](C(=O)O)C(C)C)C(C)C)C(C)C)C(C)C)C(C)C [FLGKVFKGAVKVFPAVFGKV]
MIC (Staphylococcus aureus): > 59.9 µM
MIC (Bacillus cereus): ≥ 59.9 µM
MIC (Escherichia coli): 59.9 µM (≈ 128 µg/mL)

CC(C)C[C@H](NC(=O)[C@H](CCCCN)NC(=O)[C@H](Cc1ccccc1)NC(=O)[C@@H](NC(=O)[C@H](CCCCN)NC(=O)CNC(=O)[C@H](CC(C)C)NC(=O)[C@@H](N)Cc1ccccc1)C(C)C)C(=O)N[C@@H](C)C(=O)N[C@@H](CO)C(=O)N[C@@H](CCCCN)C(=O)N[C@H](C(=O)N[C@@H](Cc1ccccc1)C(=O)N1CCC[C@H]1C(=O)N[C@@H](C)C(=O)N[C@H](C(=O)N[C@@H](Cc1ccccc1)C(=O)N[C@@H](CCCCN)C(=O)N[C@@H](CCCCN)C(=O)N[C@H](C(=O)O)C(C)C)C(C)C)C(C)C [FLGKVFKLASKVFPAVFKKV]
MIC (Staphylococcus aureus): 56.8 µM (≈ 128 µg/mL)
MIC (Bacillus cereus): ≥ 56.8 µM
MIC (Escherichia coli): 7.1 µM (≈ 16 µg/mL)

CC(C)C[C@H](NC(=O)[C@@H](N)Cc1ccccc1)C(=O)NCC(=O)N[C@H](C(=O)N[C@H](C(=O)N[C@@H](Cc1ccccc1)C(=O)N[C@@H](CCCCN)C(=O)N[C@@H](CCCCN)C(=O)N[C@@H](C)C(=O)N[C@@H](CO)C(=O)N[C@@H](CCCCN)C(=O)N[C@H](C(=O)N[C@@H](Cc1ccccc1)C(=O)N1CCC[C@H]1C(=O)N[C@@H](C)C(=O)N[C@H](C(=O)N[C@@H](Cc1ccccc1)C(=O)NCC(=O)N[C@@H](CCCCN)C(=O)N[C@H](C(=O)O)C(C)C)C(C)C)C(C)C)C(C)C)C(C)C [FLGVVFKKASKVFPAVFGKV]
MIC (Staphylococcus aureus): > 118 µM
MIC (Bacillus cereus): ≥ 118 µM
MIC (Escherichia coli): 118 µM (≈ 256 µg/mL)

CC(C)C[C@H](NC(=O)[C@H](CCCCN)NC(=O)[C@H](Cc1ccccc1)NC(=O)[C@@H](NC(=O)[C@@H](NC(=O)CNC(=O)[C@H](CC(C)C)NC(=O)[C@@H](N)Cc1ccccc1)C(C)C)C(C)C)C(=O)N[C@@H](C)C(=O)N[C@@H](CO)C(=O)N[C@@H](CCCCN)C(=O)N[C@H](C(=O)N[C@H](C(=O)N1CCC[C@H]1C(=O)N[C@@H](C)C(=O)N[C@H](C(=O)N[C@@H](Cc1ccccc1)C(=O)NCC(=O)N[C@@H](CCCCN)C(=O)N[C@H](C(=O)O)C(C)C)C(C)C)C(C)C)C(C)C [FLGVVFKLASKVVPAVFGKV]
MIC (Staphylococcus aureus): 7.6 µM (≈ 16 µg/mL)
MIC (Bacillus cereus): 30.4 µM (≈ 64 µg/mL)
MIC (Escherichia coli): 122 µM (≈ 256 µg/mL)

CC(C)C[C@H](NC(=O)[C@H](CC(C)C)NC(=O)[C@H](CCCCN)NC(=O)[C@H](CCCCN)NC(=O)[C@H](CC(C)C)NC(=O)[C@H](CC(=O)O)NC(=O)[C@H](CCCCN)NC(=O)[C@H](CC(C)C)NC(=O)[C@@H](N)Cc1ccccc1)C(N)=O [FLKDLKKLL]
MIC [1]: > 115 µM
MIC [2]: > 115 µM
MIC [3]: 14.3 µM (≈ 16 µg/mL)
MIC [4]: > 115 µM

CC(C)C[C@H](NC(=O)CN)C(=O)N[C@@H](Cc1ccccc1)C(=O)NCC(=O)N[C@@H](CCCCN)C(=O)N[C@@H](CO)C(=O)N[C@@H](CO)C(=O)N[C@H](C(=O)N[C@@H](Cc1c[nH]c2ccccc12)C(=O)NCC(=O)N[C@@H](CCCN=C(N)N)C(=O)N[C@@H](CCCCN)C(=O)N[C@@H](Cc1ccc(O)cc1)C(=O)N[C@@H](Cc1ccc(O)cc1)C(=O)N[C@H](C(=O)N[C@@H](CC(=O)O)C(=O)N[C@@H](CC(C)C)C(=O)N[C@@H](C)C(=O)NCC(=O)N[C@@H](CS)C(=O)N[C@@H](C)C(=O)N[C@@H](CCCCN)C(=O)N[C@@H](C)C(=O)O)C(C)C)C(C)C [GLFGKSSVWGRKYYVDLAGCAKA]
MIC (Bacillus subtilis): 2.54 µM (≈ 6.3 µg/mL)
MIC (Staphylococcus aureus): 2.54 µM (≈ 6.3 µg/mL)
MIC (Escherichia coli): 5.09 µM (≈ 12.6 µg/mL)
MIC (Candida albicans): 1.27 µM (≈ 3.15 µg/mL)

CC[C@H](C)[C@H](N)C(=O)N[C@@H](C)C(=O)N[C@@H](CO)C(=O)N[C@@H](C)C(=O)N[C@H](C(=O)N1CCC[C@H]1C(=O)N[C@H](C(=O)N[C@@H](CS)C(=O)N[C@H](C(=O)N[C@@H](CCCCN)C(=O)NCC(=O)N[C@@H](CCCCN)C(=O)N[C@H](C(=O)N[C@@H](CO)C(=O)N[C@@H](CCCCN)C(=O)N[C@@H](CO)C(=O)N[C@@H](Cc1ccc(O)cc1)C(=O)N[C@H](C(=O)N[C@@H](CO)C(=O)N[C@H](C(=O)O)C(C)C)[C@@H](C)CC)[C@@H](C)CC)C(C)C)C(C)C)C(C)C [IASAVPVCVKGKISKSYISV]
MIC (Bacillus cereus): ≥ 125 µM
MIC (Escherichia coli): > 125 µM

CC(C)C[C@H](NC(=O)[C@H](CO)NC(=O)[C@@H]1CCCN1)C(=O)N[C@@H](CC(C)C)C(=O)N[C@@H](Cc1ccc(O)cc1)C(=O)N[C@@H](CCCCN)C(=O)N[C@@H](C)C(=O)N[C@@H](CCCCN)C(=O)N[C@@H](C)C(=O)N[C@H](C(=O)N[C@@H](Cc1ccccc1)C(=O)N[C@@H](CS)C(=O)N[C@@H](CCCCN)C(=O)N1CCC[C@H]1C(=O)N[C@@H](CO)C(=O)N[C@@H](C)C(=O)N[C@H](C(=O)N[C@@H](C)C(=O)N[C@H](C(=O)N[C@@H](Cc1ccccc1)C(=O)O)C(C)C)C(C)C)C(C)C [PSLLYKAKAVFCKPSAVAVF]
MIC (Bacillus cereus): ≥ 59.8 µM
MIC (Escherichia coli): > 59.8 µM

CC(C)C[C@H](NC(=O)[C@H](CCC(=O)O)NC(=O)[C@H](Cc1ccccc1)NC(=O)[C@H](CCC(=O)O)NC(=O)[C@H](C)NC(=O)[C@H](CCC(=O)O)NC(=O)[C@H](Cc1ccccc1)NC(=O)[C@H](CC(=O)O)NC(=O)[C@@H](NC(=O)[C@H](CC(=O)O)NC(=O)[C@H](CO)NC(=O)[C@H](CCCCN)NC(=O)[C@H](CCCN=C(N)N)NC(=O)[C@H](CCCCN)NC(=O)[C@@H](N)CCCN=C(N)N)C(C)C)C(=O)N[C@@H](Cc1ccccc1)C(=O)N[C@@H](CCC(=O)O)C(=O)N[C@@H](CC(=O)O)C(=O)N[C@@H](CC(=O)O)C(=O)N[C@@H](CC(=O)O)C(=O)O [RKRKSDVDFEAEFELFEDDD]
MIC (Bacillus cereus): ≥ 103 µM
MIC (Escherichia coli): > 103 µM

CC[C@H](C)[C@H](NC(=O)[C@H](CCCCN)NC(=O)[C@H](CS)NC(=O)[C@H](C)NC(=O)[C@@H](NC(=O)[C@H](Cc1ccccc1)NC(=O)CNC(=O)[C@H](CC(C)C)NC(=O)CNC(=O)[C@@H](NC(=O)[C@H](CCCCN)NC(=O)CNC(=O)[C@H](CC(C)C)NC(=O)[C@H](CC(N)=O)NC(=O)[C@H](CCCCN)NC(=O)[C@H](CC(C)C)NC(=O)[C@@H](NC(=O)[C@H](CO)NC(=O)[C@H](CC(C)C)NC(=O)[C@H](CCSC)NC(=O)[C@@H](N)CO)C(C)C)C(C)C)C(C)C)C(=O)N[C@@H](CC(N)=O)C(=O)N[C@@H](CCCCN)C(=O)N[C@@H](CCCCN)C(=O)N[C@@H](CS)C(=O)O [SMLSVLKNLGKVGLGFVACKINKKC]
MIC (Staphylococcus aureus): 40 µM (≈ 106 µg/mL)
MIC (Escherichia coli): 10 µM (≈ 26.5 µg/mL)
MIC (Candida albicans): 40 µM (≈ 106 µg/mL)

CC[C@H](C)[C@H](NC(=O)[C@H](CCCCN)NC(=O)[C@H](CS)NC(=O)[C@H](CCCCN)NC(=O)[C@@H](NC(=O)[C@H](Cc1ccccc1)NC(=O)CNC(=O)[C@H](CC(C)C)NC(=O)CNC(=O)[C@@H](NC(=O)[C@H](CCCCN)NC(=O)CNC(=O)[C@H](CC(C)C)NC(=O)[C@H](CC(N)=O)NC(=O)[C@H](CCCCN)NC(=O)[C@H](CC(C)C)NC(=O)[C@@H](NC(=O)[C@H](CO)NC(=O)[C@H](CC(C)C)NC(=O)[C@H](CCSC)NC(=O)[C@@H](N)CO)C(C)C)C(C)C)C(C)C)C(=O)N[C@@H](CC(N)=O)C(=O)N[C@@H](CCCCN)C(=O)N[C@@H](CCC(N)=O)C(=O)N[C@@H](CS)C(=O)O [SMLSVLKNLGKVGLGFVKCKINKQC]
MIC (Staphylococcus aureus): 20 µM (≈ 54.2 µg/mL)
MIC (Escherichia coli): 10 µM (≈ 27.1 µg/mL)
MIC (Candida albicans): 20 µM (≈ 54.2 µg/mL)

CC[C@H](C)[C@H](NC(=O)[C@H](C)NC(=O)[C@H](CS)NC(=O)[C@H](Cc1ccc(O)cc1)NC(=O)[C@@H](NC(=O)[C@H](CO)NC(=O)[C@@H]1CCCN1C(=O)[C@@H](NC(=O)[C@@H](NC(=O)[C@H](CCCCN)NC(=O)[C@H](CO)NC(=O)[C@H](C)NC(=O)[C@@H](NC(=O)[C@H](CCCCN)NC(=O)CNC(=O)[C@@H](NC(=O)[C@@H](NC(=O)[C@@H](N)CO)C(C)C)[C@@H](C)CC)[C@@H](C)CC)C(C)C)C(C)C)C(C)C)C(=O)N[C@@H](CO)C(=O)N[C@@H](CCCCN)C(=O)O [SVIGKIASKVVPSVYCAISK]
MIC (Bacillus cereus): ≥ 125 µM
MIC (Escherichia coli): > 125 µM
